Results taken from patent US11814367B2, “Inhibitors of glycogen synthase 1 (GYS1) and methods of use thereof” (Maze Therapeutics, Inc., priority 2021, dated 2023).

Assays:
[1] = molecular target: hGYS1 enzyme (recombinant hGYS1/GN1 protein) (Homo sapiens (Human), UniProt P13807); experiment: GYS1 coupled enzyme assay (PK/LDH); assay type: biochemical; conditions: hGYS1/GN1 50 nM, UDP-Glucose 0.8 mM, G6P 1 mM; geometric mean of at least 2 runs
[2] = tested on: hGYS1 enzyme / glycogen synthesis in HeLa cells; experiment: GYS1 cell based assay (glycogen synthesis, Glucose-glo); parameters: species or system human; conditions: 24 h incubation, 20 mM glucose, geometric mean of at least 2 runs
Summary of the method: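 HeLa cells starved 24 h in medium containing only 1× Glutamax were plated onto compound in medium with 20 mM glucose (1% DMSO final) for 24 h, 37 °C, 5% CO2. Acid lysates were Tris-quenched, glucoamylase-digested (pH 5.3, 1 h, 37 °C) and read by Glucose-glo luminescence. IC50 came from Hill fits, as geometric mean of ≥2 runs.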

Sequence of hGYS1 enzyme (recombinant hGYS1/GN1 protein) (P13807 whole entry): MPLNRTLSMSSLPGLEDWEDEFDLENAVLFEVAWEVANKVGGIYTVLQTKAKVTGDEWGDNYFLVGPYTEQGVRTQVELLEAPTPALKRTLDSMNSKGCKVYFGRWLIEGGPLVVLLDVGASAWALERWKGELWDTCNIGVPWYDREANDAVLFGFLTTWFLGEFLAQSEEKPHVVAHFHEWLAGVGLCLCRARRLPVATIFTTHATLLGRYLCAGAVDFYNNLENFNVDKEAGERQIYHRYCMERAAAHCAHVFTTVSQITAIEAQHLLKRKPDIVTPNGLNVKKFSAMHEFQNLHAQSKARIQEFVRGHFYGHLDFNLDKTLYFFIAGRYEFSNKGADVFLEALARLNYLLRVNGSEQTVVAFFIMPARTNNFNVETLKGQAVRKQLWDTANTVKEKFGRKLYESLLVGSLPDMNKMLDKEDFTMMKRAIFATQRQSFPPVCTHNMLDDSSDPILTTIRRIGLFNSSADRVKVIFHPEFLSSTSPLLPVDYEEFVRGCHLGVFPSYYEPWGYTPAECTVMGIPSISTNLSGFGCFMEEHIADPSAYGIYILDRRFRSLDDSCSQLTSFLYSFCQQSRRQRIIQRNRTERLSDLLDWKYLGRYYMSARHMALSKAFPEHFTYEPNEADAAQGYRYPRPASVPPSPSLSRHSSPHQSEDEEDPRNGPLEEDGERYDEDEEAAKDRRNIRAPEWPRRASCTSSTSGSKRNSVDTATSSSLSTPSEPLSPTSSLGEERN
Sequence of hGYS1 enzyme (recombinant hGYS1/GN1 protein) (P46976 whole entry partner): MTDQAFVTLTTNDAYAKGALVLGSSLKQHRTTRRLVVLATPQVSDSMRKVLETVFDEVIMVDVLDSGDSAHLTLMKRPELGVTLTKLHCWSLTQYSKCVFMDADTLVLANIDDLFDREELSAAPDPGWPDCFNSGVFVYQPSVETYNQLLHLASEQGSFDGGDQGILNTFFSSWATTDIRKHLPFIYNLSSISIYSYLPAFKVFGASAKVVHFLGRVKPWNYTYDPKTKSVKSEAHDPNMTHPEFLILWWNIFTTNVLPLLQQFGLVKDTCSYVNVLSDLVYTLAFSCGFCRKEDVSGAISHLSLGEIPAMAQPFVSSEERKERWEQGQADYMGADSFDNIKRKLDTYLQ

| Compound | IC50 [1] [nM] | IC50 ([2]; Homo sapiens, HeLa, 24 h) [nM] | IC50 [2] [nM] |
| --- | --- | --- | --- |
| O=C(N[C@@H](c1ccccc1)c1ccc(C2CC2)c(F)c1)[C@@H]1C[C@@H](F)CN1C(=O)Cc1cc2ccccc2[nH]1 [Compound 460, (2S,4R)-N-[(S)-(4-cyclopropyl-3-fluorophenyl)(phenyl)methyl]-4-fluoro-1-[2-(1H-indol-2-yl)acetyl] pyrrolidine-2-carboxamide] | 187 | 2420 | – |
| CCn1cccc(CC(=O)N2C[C@H](F)C[C@H]2C(=O)N[C@@H](c2ccccc2)c2ccc(C3CC(F)(F)C3)c(F)n2)c1=O [Compound 526, (2S,4R)-N-[(S)-[5-(3,3-difluorocyclobutyl)-6-fluoropyridin-2-yl](phenyl)methyl]-1-[2-(1-ethyl-2-oxo-1,2-dihydropyridin-3-yl)acetyl]-4-fluoropyrrolidine-2-carboxamide] | 11 | 130 | – |
| Cc1ncccc1C(NC(=O)[C@@H]1C[C@@H](F)CN1C(=O)Cc1cnn[nH]1)c1ccc(C2(C)CC2)c(F)c1 (single isomer, unassigned) [Compound 627, (2S,4R)-4-fluoro-N-[(R) or (S)-[3-fluoro-4-(1-methylcyclopropyl)phenyl](2-methylpyridin-3-yl)methyl]-1-[2-(1H-1,2,3-triazol-5-yl)acetyl]pyrrolidine-2-carboxamide] | 1620 | 29500 | – |
| O=C(N[C@@H](c1ccccc1)c1ccc(C2CC(F)(F)C2)cn1)[C@@H]1C[C@@H](F)CN1C(=O)Cc1nc(C(F)(F)F)co1 [Compound 543, (2S,4R)-N-[(S)-[5-(3,3-difluorocyclobutyl)pyridin-2-yl](phenyl)methyl]-4-fluoro-1-{2-[4-(trifluoromethyl)-1,3-oxazol-2-yl]acetyl}pyrrolidine-2-carboxamide] | 49 | 610 | – |
| CCn1cc(C)cc(CC(=O)N2C[C@H](F)C[C@H]2C(=O)N[C@@H](c2ccccc2)c2ccc(C3CC(F)(F)C3)c(F)n2)c1=O [Compound 525, (2S,4R)-N-[(S)-[5-(3,3-difluorocyclobutyl)-6-fluoropyridin-2-yl](phenyl)methyl]-1-[2-(1-ethyl-5-methyl-2-oxo-1,2-dihydropyrdin-3-yl)acetyl]-4-fluoropyrrolidine-2-carboxamide] | 4 | 50 | – |
| CC(C)c1ccc([C@@H](NC(=O)[C@@H]2C[C@@H](F)CN2C(=O)Cc2noc(=O)[nH]2)c2ccccc2)nc1 [Compound 286, (2S,4R)-4-fluoro-1-[2-(5-oxo-4,5-dihydro-1,2,4-oxadiazol-3-yl)acetyl]-N-[(S)-phenyl[5-(propan-2-yl)pyridin-2-yl]methyl]pyrrolidine-2-carboxamide] | 147 | > 30000 | – |
| O=C(N[C@@H](c1ccccc1)c1ccc(C2CC2)c(F)n1)[C@@H]1C[C@@H](F)CN1C(=O)Cn1nncc1C(F)F [Compound 747, (2S,4R)-N-[(S)-(5-cyclopropyl-6-fluoropyridin-2-yl)(phenyl)methyl]-1-{2-[5-(difluoromethyl)-1H-1,2,3-triazol-1-yl]acetyl}-4-fluoropyrrolidine-2-carboxamide] | 16 | 420 | – |
| CC(C)c1ccc(C(NC(=O)[C@@H]2C[C@@H](F)CN2C(=O)Cc2cnn[nH]2)c2ccc3cn[nH]c3c2)nc1F (single isomer, unassigned) [Compound 633, (2S,4R)-4-fluoro-N-[(R) or (S)-[6-fluoro-5-(propan-2-yl)pyridin-2-yl](1H-indazol-6-yl)methyl]-1-[2-(1H-1,2,3-triazol-5-yl)acetyl]pyrrolidine-2-carboxamide] | 1600 | – | > 30000 |
| CC(C)(C)OC(=O)n1c(CC(=O)N2C[C@H](F)C[C@H]2C(=O)N[C@@H](c2ccccc2)c2ccc(C3CC3)c(F)c2)cc2ccccc21 [Compound 461, tert-butyl 2-{2-[(2S,4R)-2-{[(S)-(4-cyclopropyl-3-fluorophenyl)(phenyl)methyl]carbamoyl}-4-fluoropyrrolidin-1-yl]-2-oxoethyl}-1H-indole-1-carboxylate] | 26 | 570 | – |
| CC(C)c1ccc([C@H](NC(=O)[C@@H]2C[C@@H](F)CN2C(=O)Cc2cnn[nH]2)c2ccccc2)nc1F (relative stereo) [Compound 776, (2S,4R)-4-fluoro-N-[(R*)-[6-fluoro-5-(propan-2-yl)pyridin-2-yl](phenyl)methyl]-1-[2-(1H-1,2,3-triazol-5-yl)acetyl] pyrrolidine-2-carboxamide] | 1150 | > 9010 | – |
| Cn1cc(C(F)F)c(CC(=O)N2C[C@H](F)C[C@H]2C(=O)N[C@@H](c2ccccc2)c2ccc(C3CC3)c(F)n2)n1 [Compound 757, (2S,4R)-N-[(S)-(5-cyclopropyl-6-fluoropyridin-2-yl)(phenyl)methyl]-1-{2-[4-(difluoromethyl)-1-methyl-1H-pyrazol-3-yl]acetyl}-4-fluoropyrrolidine-2-carboxamide] | 29 | 400 | – |
| CCn1cc(C)cc(CC(=O)N2C[C@H](F)C[C@H]2C(=O)N[C@@H](c2ccccc2)c2ccc(C(C)C)c(F)n2)c1=O [Compound 799, (2S,4R)-1-[2-(1-ethyl-5-methyl-2-oxo-1,2-dihydropyridin-3-yl)acetyl]-4-fluoro-N-[(S)-[6-fluoro-5-(propan-2-yl)pyridin-2-yl](phenyl)methyl] pyrrolidine-2-carboxamide] | 4 | 100 | – |
| Cn1cc(CC(=O)N2C[C@H](F)C[C@H]2C(=O)N[C@@H](c2ccccc2)c2ccc(C3CC3)c(F)n2)c(C(F)F)n1 [Compound 749, (2S,4R)-N-[(S)-(5-cyclopropyl-6-fluoropyridin-2-yl)(phenyl)methyl]-1-{2-[3-(difluoromethyl)-1-methyl-1H-pyrazol-4-yl]acetyl}-4-fluoropyrrolidine-2-carboxamide] | 6 | 250 | – |
| CC(C)c1ccc(C(NC(=O)[C@@H]2C[C@@H](F)CN2C(=O)Cc2cnn[nH]2)c2cccc(-c3cnco3)c2)nc1F (single isomer, unassigned) [Compound 693, (2S,4R)-4-fluoro-N-[(S) or (R)-[6-fluoro-5-(propan-2-yl)pyridin-2-yl][3-(1,3-oxazol-5-yl)phenyl]methyl]-1-[2-(1H-1,2,3-triazol-5-yl)acetyl]pyrrolidine-2-carboxamide] | 56 | – | 1150 |
| CC(=O)N1C[C@H](F)C[C@H]1C(=O)NC(c1cccc(-c2ccnn2C)c1)c1ccc(C(C)C)c(F)n1 (single isomer, unassigned) [Compound 695, (2S,4R)-1-acetyl-4-fluoro-N-[(S) or (R)-[6-fluoro-5-(propan-2-yl)pyridin-2-yl][3-(1-methyl-1H-pyrazol-5-yl)phenyl]methyl] pyrrolidine-2-carboxamide] | 929 | > 26300 | – |
| O=C(N[C@@H](c1ccccc1)c1ccc(C2CC2)c(F)n1)[C@@H]1C[C@@H](F)CN1C(=O)Cn1nncc1C(F)(F)F [Compound 745, (2S,4R)-N-[(S)-(5-cyclopropyl-6-fluoropyridin-2-yl)(phenyl)methyl]-4-fluoro-1-{2-[5-(trifluoromethyl)-1H-1,2,3-triazol-1-yl]acetyl}pyrrolidine-2-carboxamide] | 24 | 510 | – |
| O=C(N[C@@H](c1ccccc1)c1ccc(C2CC(F)(F)C2)c(F)n1)[C@@H]1C[C@@H](F)CN1C(=O)Cc1ncc[nH]c1=O [Compound 529, (2S,4R)-N-[(S)-[5-(3,3-difluorocyclobutyl)-6-fluoropyridin-2-yl](phenyl)methyl]-4-fluoro-1-[2-(3-oxo-3,4-dihydropyrazin-2-yl)acetyl]pyrrolidine-2-carboxamide] | 16 | 1040 | – |
| CC(C)c1ccc([C@@H](NC(=O)[C@@H]2C[C@@H](F)CN2C(=O)Cn2nncc2N2CC(F)(F)C2)c2ccccc2)nc1F [Compound 807, (2S,4R)-1-{2-[5-(3,3-difluoroazetidin-1-yl)-1H-1,2,3-triazol-1-yl]acetyl}-4-fluoro-N-[(S)-[6-fluoro-5-(propan-2-yl)pyridin-2-yl](phenyl)methyl] pyrrolidine-2-carboxamide] | 19 | 450 | – |
| CC(=O)NCc1cccc([C@H](NC(=O)[C@@H]2C[C@@H](F)CN2C(=O)Cc2cnn[nH]2)c2ccc(C(C)C)c(F)n2)c1 [Compound 655, (2S,4R)-N-[(S)-[3-(acetamidomethyl)phenyl][6-fluoro-5-(propan-2-yl)pyridin-2-yl]methyl]-4-fluoro-1-[2-(1H-1,2,3-triazol-5-yl)acetyl]pyrrolidine-2-carboxamide] | 1010 | > 30000 | – |
| O=C(N[C@H](c1ccccc1)c1ccc(C2CC2)c(F)n1)[C@@H]1C[C@@H](F)CN1C(=O)Cc1cccn2c(=O)[nH]nc12 [Compound 718, (2S,4R)-N-[(R)-(5-cyclopropyl-6-fluoropyridin-2-yl)(phenyl)methyl]-4-fluoro-1-(2-{3-oxo-2H,3H-[1,2,4]triazolo[4,3-a]pyridin-8-yl}acetyl)pyrrolidine-2-carboxamide] | 2620 | > 30000 | – |
| CC(C)c1ccc(C(NC(=O)[C@@H]2C[C@@H](F)CN2C(=O)Cc2cnn[nH]2)c2ncc3ccccn23)nc1F (single isomer, unassigned) [Compound 628, (2S,4R)-4-fluoro-N-[(R) or (S)-[6-fluoro-5-(propan-2-yl)pyridin-2-yl]({imidazo[1,5-a]pyridin-3-yl})methyl]-1-[2-(1H-1,2,3-triazol-5-yl)acetyl]pyrrolidine-2-carboxamide] | 2780 | > 30000 | – |
| CCn1cccc(CC(=O)N2C[C@H](F)C[C@H]2C(=O)N[C@@H](c2ccccc2)c2ccc(C3CC3)c(F)n2)c1=O [Compound 741, (2S,4R)-N-[(S)-(5-cyclopropyl-6-fluoropyridin-2-yl)(phenyl)methyl]-1-[2-(1-ethyl-2-oxo-1,2-dihydropyridin-3-yl)acetyl]-4-fluoropyrrolidine-2-carboxamide] | 16 | 710 | – |
